Data from patent US20260070945A1, “MACROCYCLIC IMMUNOMODULATORS” (Bristol-Myers Squibb Company, priority 2022, published 2026).
Where a SMILES comes first, the peptide text is derived from it. Bridges are numbered along the chain shown (N, C = ends). [ ]: non-standard residue; d: D form. The star is where a group is joined. Bip = N[C@@H](Cc1ccc(-c2ccccc2)cc1)C(=O)O; hArg = N=C(N)NCCCC[C@H](N)C(=O)O; 4Pal = N[C@@H](Cc1ccncc1)C(=O)O; Cha = N[C@@H](CC1CCCCC1)C(=O)O; Cit = NC(=O)NCCC[C@H](N)C(=O)O; Carboxymethyl = O=C(O)C*; NMeA = CN[C@@H](C)C(=O)O; Orn = NCCC[C@H](N)C(=O)O; Aun = NCCCCCCCCCCC(=O)O; Dab = NCC[C@H](N)C(=O)O; Dap = NC[C@H](N)C(=O)O; AEEA = NCCOCCOCC(=O)O

Target: T1, PD-1/PD-L1 interaction (PE-labeled human PD-L1-Ig binding to Jurkat cell line over-expressing human PD-1) (Homo sapiens, UniProt Q15116)
T1 construct: expressed in transfected cells; host or cells: Jurkat
T1 sequence (Q15116 25-288): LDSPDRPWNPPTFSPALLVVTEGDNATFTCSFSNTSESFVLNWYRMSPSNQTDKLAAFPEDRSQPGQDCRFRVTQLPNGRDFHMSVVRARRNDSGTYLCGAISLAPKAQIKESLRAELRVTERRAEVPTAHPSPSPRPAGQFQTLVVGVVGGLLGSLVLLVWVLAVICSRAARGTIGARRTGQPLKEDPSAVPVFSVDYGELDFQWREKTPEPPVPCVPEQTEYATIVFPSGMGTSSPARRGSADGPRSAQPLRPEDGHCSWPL
Test: Jurkat-PD-1 Cell Binding High-Content Screening Assay (CBA)
Conditions: Jurkat-hPD-1 cells, PE-labeled PD-L1-Ig 20 nM final; read-out: Jurkat HPD1 PDL1 IC50
Outline: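 In this imaging assay, cells in 10% FCS medium see compound for 2 h at 37 °C and then labeled ligand at 20 nM final for 1 h. Paraformaldehyde fixation, Hoechst 33342 staining and dPBS washes precede image capture.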

Question: For `CC(C)C[C@@H]1NC(=O)[C@H](Cc2c[nH]c3ccccc23)NC(=O)[C@H](CC(=O)O)NC(=O)[C@H](Cc2ccc(O)cc2)NC(=O)[C@H](Cc2ccncc2)NC(=O)CSC[C@@H](C(=O)NCCOCCOCC(=O)N[C@@H](CCCN)C(=O)NCCCCCCCCCCC(=O)O)NC(=O)[C@H](CCCN)NC(=O)[C@H](C(C)C)NC(=O)[C@H](CC2CCCCC2)NC(=O)[C@H](CCN)NC(=O)[C@@H](CC(C)C)NC(=O)[C@H](C)N(C)C(=O)[C@H](C(C)C)NC(=O)[C@H](Cc2ccc(-c3ccccc3)cc2)NC1=O` [Example 2163] ({CH2CO}-[4Pal]YDWL[Bip]V[NMeA][dL][Dab][Cha]V[Orn]C[AEEA][Orn][Aun]-OH; thioether N-14), which IC50 is on record?
Answer: The IC50 was 0.0176 µM.

Question: `CC(C)C[C@@H]1NC(=O)[C@H](Cc2c[nH]c3ccccc23)NC(=O)[C@H](CC(=O)O)NC(=O)[C@H](Cc2ccncc2)NC(=O)[C@H](Cc2ccc(OCC(=O)O)cc2)NC(=O)CSC[C@@H](C(=O)NCCOCCOCC(=O)N[C@@H](CN)C(=O)NCCCCCCCCCCC(=O)O)NC(=O)[C@H](CCCNC(N)=O)NC(=O)[C@H](C(C)C)NC(=O)[C@H](CC2CCCCC2)NC(=O)[C@H](CCN)NC(=O)[C@@H](CC(C)C)NC(=O)[C@H](C)N(C)C(=O)[C@H](C(C)C)NC(=O)[C@H](Cc2ccc(-c3ccccc3)cc2)NC1=O` [Example 2164] ({CH2CO}-Y(Carboxymethyl)[4Pal]DWL[Bip]V[NMeA][dL][Dab][Cha]V[Cit]C[AEEA][Dap][Aun]-OH; thioether N-14) was tested. Which IC50 did it give?
Answer: The IC50 was 0.0119 µM.

Question: `CC(C)C[C@@H]1NC(=O)[C@H](Cc2c[nH]c3ccccc23)NC(=O)[C@H](CC(=O)O)NC(=O)[C@H](Cc2ccncc2)NC(=O)[C@H](Cc2ccc(OCC(=O)O)cc2)NC(=O)CSC[C@@H](C(=O)N[C@@H](CCCN)C(=O)NCCOCCOCC(=O)NCCCCCCCCCCC(=O)O)NC(=O)[C@H](CCCNC(N)=O)NC(=O)[C@H](C(C)C)NC(=O)[C@H](CC2CCCCC2)NC(=O)[C@H](CN)NC(=O)[C@@H](CC(C)C)NC(=O)[C@H](C)N(C)C(=O)[C@H](C(C)C)NC(=O)[C@H](Cc2ccc(-c3ccccc3)cc2)NC1=O` [Example 2166] ({CH2CO}-Y(Carboxymethyl)[4Pal]DWL[Bip]V[NMeA][dL][Dap][Cha]V[Cit]C[Orn][AEEA][Aun]-OH; thioether N-14) was tested. Which IC50 did it give?
Answer: The IC50 was 0.0247 µM.

Question: Which IC50 does the source give for `CC(C)C[C@@H]1NC(=O)[C@H](Cc2c[nH]c3ccccc23)NC(=O)[C@H](CC(=O)O)NC(=O)[C@H](Cc2ccncc2)NC(=O)[C@H](Cc2ccc(OCC(=O)O)cc2)NC(=O)CSC[C@@H](C(=O)N[C@@H](CCCNC(N)=O)C(=O)NCCOCCOCC(=O)NCCCCCCCCCCC(=O)O)NC(=O)[C@H](CCCNC(N)=O)NC(=O)[C@H](C(C)C)NC(=O)[C@H](CC2CCCCC2)NC(=O)[C@H](CCN)NC(=O)[C@@H](CC(C)C)NC(=O)[C@H](C)N(C)C(=O)[C@H](C(C)C)NC(=O)[C@H](Cc2ccc(-c3ccccc3)cc2)NC1=O` [Example 2167] ({CH2CO}-Y(Carboxymethyl)[4Pal]DWL[Bip]V[NMeA][dL][Dab][Cha]V[Cit]C[Cit][AEEA][Aun]-OH; thioether N-14) here?
Answer: The IC50 was 0.0244 µM.

Question: How did the IC50 turn out when `CC(C)C[C@@H]1NC(=O)[C@H](Cc2c[nH]c3ccccc23)NC(=O)[C@H](CC(=O)O)NC(=O)[C@H](Cc2ccncc2)NC(=O)[C@H](Cc2ccc(OCC(=O)O)cc2)NC(=O)CSC[C@@H](C(=O)NCCOCCOCC(=O)N[C@@H](CCCN)C(=O)NCCCCCCCCCCC(=O)O)NC(=O)[C@H](CCCNC(N)=O)NC(=O)[C@H](C(C)C)NC(=O)[C@H](CC2CCCCC2)NC(=O)[C@H](CCN)NC(=O)[C@@H](CC(C)C)NC(=O)[C@H](C)N(C)C(=O)[C@H](C(C)C)NC(=O)[C@H](Cc2ccc(-c3ccccc3)cc2)NC1=O` [Example 2168] ({CH2CO}-Y(Carboxymethyl)[4Pal]DWL[Bip]V[NMeA][dL][Dab][Cha]V[Cit]C[AEEA][Orn][Aun]-OH; thioether N-14) was run?
Answer: Its IC50 is 0.009 µM.

Question: How did the IC50 turn out when `CC(=O)NCCC[C@@H]1NC(=O)[C@H](C(C)C)NC(=O)[C@H](CC2CCCCC2)NC(=O)[C@H](CCN)NC(=O)[C@@H](CC(C)C)NC(=O)[C@H](C)N(C)C(=O)[C@H](C(C)C)NC(=O)[C@H](Cc2ccc(-c3ccccc3)cc2)NC(=O)[C@H](CC(C)C)NC(=O)[C@H](Cc2c[nH]c3ccccc23)NC(=O)[C@H](CC(=O)O)NC(=O)[C@H](Cc2ccncc2)NC(=O)[C@H](Cc2ccc(OCC(=O)O)cc2)NC(=O)CSC[C@@H](C(=O)NCC(=O)NCCOCCOCC(=O)N[C@@H](CN)C(=O)NCCCCCCCCCCC(=O)O)NC1=O` [Example 2169] ({CH2CO}-Y(Carboxymethyl)[4Pal]DWL[Bip]V[NMeA][dL][Dab][Cha]V[Orn](Ac)CG[AEEA][Dap][Aun]-OH; thioether N-14) was run?
Answer: Its IC50 is 0.0126 µM.

Question: With `CC(C)C[C@@H]1NC(=O)[C@H](Cc2c[nH]c3ccccc23)NC(=O)[C@H](CC(=O)O)NC(=O)[C@H](Cc2ccncc2)NC(=O)[C@H](Cc2ccc(OCC(=O)O)cc2)NC(=O)CSC[C@@H](C(=O)NCC(=O)NCCOCCOCC(=O)N[C@@H](CCN)C(=O)NCCCCCCCCCCC(=O)O)NC(=O)[C@H](CCCNC(N)=O)NC(=O)[C@H](C(C)C)NC(=O)[C@H](CC2CCCCC2)NC(=O)[C@H](CCN)NC(=O)[C@@H](CC(C)C)NC(=O)[C@H](C)N(C)C(=O)[C@H](C(C)C)NC(=O)[C@H](Cc2ccc(-c3ccccc3)cc2)NC1=O` [Example 2170] ({CH2CO}-Y(Carboxymethyl)[4Pal]DWL[Bip]V[NMeA][dL][Dab][Cha]V[Cit]CG[AEEA][Dab][Aun]-OH; thioether N-14) as the molecule, how does the IC50 read?
Answer: The IC50 was 0.0086 µM.

Question: With `CC(C)C[C@@H]1NC(=O)[C@H](Cc2c[nH]c3ccccc23)NC(=O)[C@H](CC(=O)O)NC(=O)[C@H](Cc2ccncc2)NC(=O)[C@H](Cc2ccc(OCC(=O)O)cc2)NC(=O)CSC[C@@H](C(=O)NCC(=O)NCCOCCOCC(=O)N[C@@H](CCCCN)C(=O)NCCCCCCCCCCC(=O)O)NC(=O)[C@H](CCCNC(N)=O)NC(=O)[C@H](C(C)C)NC(=O)[C@H](CC2CCCCC2)NC(=O)[C@H](CCN)NC(=O)[C@@H](CC(C)C)NC(=O)[C@H](C)N(C)C(=O)[C@H](C(C)C)NC(=O)[C@H](Cc2ccc(-c3ccccc3)cc2)NC1=O` [Example 2172] ({CH2CO}-Y(Carboxymethyl)[4Pal]DWL[Bip]V[NMeA][dL][Dab][Cha]V[Cit]CG[AEEA]K[Aun]-OH; thioether N-14) as the molecule, how does the IC50 read?
Answer: Its IC50 is 0.013 µM.

Question: How did the IC50 turn out when `CC(C)C[C@@H]1NC(=O)[C@H](Cc2c[nH]c3ccccc23)NC(=O)[C@H](CC(=O)O)NC(=O)[C@H](Cc2ccncc2)NC(=O)[C@H](Cc2ccc(OCC(=O)O)cc2)NC(=O)CSC[C@@H](C(=O)NCC(=O)NCCOCCOCC(=O)N[C@@H](CCCNC(N)=O)C(=O)NCCCCCCCCCCC(=O)O)NC(=O)[C@H](CCCNC(N)=O)NC(=O)[C@H](C(C)C)NC(=O)[C@H](CC2CCCCC2)NC(=O)[C@H](CCN)NC(=O)[C@@H](CC(C)C)NC(=O)[C@H](C)N(C)C(=O)[C@H](C(C)C)NC(=O)[C@H](Cc2ccc(-c3ccccc3)cc2)NC1=O` [Example 2173] ({CH2CO}-Y(Carboxymethyl)[4Pal]DWL[Bip]V[NMeA][dL][Dab][Cha]V[Cit]CG[AEEA][Cit][Aun]-OH; thioether N-14) was run?
Answer: The IC50 was 0.0156 µM.

Question: `CC(C)C[C@@H]1NC(=O)[C@H](Cc2c[nH]c3ccccc23)NC(=O)[C@H](CC(=O)O)NC(=O)[C@H](Cc2ccncc2)NC(=O)[C@H](Cc2ccc(OCC(=O)O)cc2)NC(=O)CSC[C@@H](C(=O)NCCOCCOCC(=O)N[C@@H](CCCNC(N)=O)C(=O)NCCCCCCCCCCC(=O)O)NC(=O)[C@H](CCCNC(N)=O)NC(=O)[C@H](C(C)C)NC(=O)[C@H](CC2CCCCC2)NC(=O)[C@H](CCN)NC(=O)[C@@H](CC(C)C)NC(=O)[C@H](C)N(C)C(=O)[C@H](C(C)C)NC(=O)[C@H](Cc2ccc(-c3ccccc3)cc2)NC1=O` [Example 2174] ({CH2CO}-Y(Carboxymethyl)[4Pal]DWL[Bip]V[NMeA][dL][Dab][Cha]V[Cit]C[AEEA][Cit][Aun]-OH; thioether N-14) was tested. Which IC50 did it give?
Answer: The IC50 was 0.0164 µM.

Question: With `CC(C)C[C@@H]1NC(=O)[C@H](Cc2c[nH]c3ccccc23)NC(=O)[C@H](CC(=O)O)NC(=O)[C@H](Cc2ccc(OCC(=O)O)cc2)NC(=O)[C@H](CCCCNC(=N)N)NC(=O)CSC[C@@H](C(=O)N[C@@H](CCCN)C(=O)NCCOCCOCC(=O)NCCCCCCCCCCC(=O)O)NC(=O)[C@H](CCCNC(N)=O)NC(=O)[C@H](C(C)C)NC(=O)[C@H](CC2CCCCC2)NC(=O)[C@H](CN)NC(=O)[C@@H](CC(C)C)NC(=O)[C@H](C)N(C)C(=O)[C@H](C(C)C)NC(=O)[C@H](Cc2ccc(-c3ccccc3)cc2)NC1=O` [Example 2177] ({CH2CO}-[hArg]Y(Carboxymethyl)DWL[Bip]V[NMeA][dL][Dap][Cha]V[Cit]C[Orn][AEEA][Aun]-OH; thioether N-14) as the molecule, how does the IC50 read?
Answer: Its IC50 is 0.0259 µM.

Question: With `CC(C)C[C@@H]1NC(=O)[C@H](Cc2c[nH]c3ccccc23)NC(=O)[C@H](CC(=O)O)NC(=O)[C@H](Cc2ccc(OCC(=O)O)cc2)NC(=O)[C@H](CCCCNC(=N)N)NC(=O)CSC[C@@H](C(=O)NCC(=O)NCCOCCOCC(=O)N[C@@H](CN)C(=O)NCCCCCCCCCCC(=O)O)NC(=O)[C@H](CCCNC(N)=O)NC(=O)[C@H](C(C)C)NC(=O)[C@H](CC2CCCCC2)NC(=O)[C@H](CCN)NC(=O)[C@@H](CC(C)C)NC(=O)[C@H](C)N(C)C(=O)[C@H](C(C)C)NC(=O)[C@H](Cc2ccc(-c3ccccc3)cc2)NC1=O` [Example 2178] ({CH2CO}-[hArg]Y(Carboxymethyl)DWL[Bip]V[NMeA][dL][Dab][Cha]V[Cit]CG[AEEA][Dap][Aun]-OH; thioether N-14) as the molecule, how does the IC50 read?
Answer: Its IC50 is 0.0085 µM.

Question: How did the IC50 turn out when `CC(C)C[C@@H]1NC(=O)[C@H](Cc2c[nH]c3ccccc23)NC(=O)[C@H](CC(=O)O)NC(=O)[C@H](Cc2ccc(OCC(=O)O)cc2)NC(=O)[C@H](CCCCNC(=N)N)NC(=O)CSC[C@@H](C(=O)NCC(=O)NCCOCCOCC(=O)N[C@@H](CCN)C(=O)NCCCCCCCCCCC(=O)O)NC(=O)[C@H](CCCNC(N)=O)NC(=O)[C@H](C(C)C)NC(=O)[C@H](CC2CCCCC2)NC(=O)[C@H](CCN)NC(=O)[C@@H](CC(C)C)NC(=O)[C@H](C)N(C)C(=O)[C@H](C(C)C)NC(=O)[C@H](Cc2ccc(-c3ccccc3)cc2)NC1=O` [Example 2179] ({CH2CO}-[hArg]Y(Carboxymethyl)DWL[Bip]V[NMeA][dL][Dab][Cha]V[Cit]CG[AEEA][Dab][Aun]-OH; thioether N-14) was run?
Answer: The IC50 was 0.0112 µM.
